# Laboratory results from patent US12049450B2, “Pyridyloxy-carboxylate derivative and preparation method therefor, herbicidal composition, and use” (Qingdao Kingagroot Chemical Compound Co., Ltd., priority 2018, dated 2024).
# Legend:
# Assay in all cases: Post-emergence test experiment (greenhouse pot, spray at 2-3 leaf stage)
# Assay type in all cases: in vivo
# Settings in all cases: 1000 g/ha; post-emergence spray at 2-3 leaf stage; assessed after 3 weeks; fresh weight inhibition rate
# [1] = tested on: Abutilon theophrasti
# How it was run: (§1)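 Weed seeds sown in soil-filled pots in greenhouse, sprayed at 2-3 leaf stage (2 weeks after sowing) with compound in acetone/tween-80 plus methyl oleate emulsible concentrate (1.5 L/ha) diluted in water. Fresh-weight growth inhibition scored after 3 weeks on 0-5 scale (5: >85%, 0: <5%).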
# [2] = tested on: Digitaria sanguinalis
# How it was run: as §1
# [3] = tested on: Echinochloa crusgalli
# How it was run: as §1
# [4] = tested on: Galium spurium
# How it was run: as §1
# [5] = tested on: Monochoria vaginalis
# How it was run: as §1
SMILES,Activity level (growth inhibition rate) Abutilon theophrasti [1],Activity level (growth inhibition rate) Digitaria sanguinalis [2],Activity level (growth inhibition rate) Echinochloa crusgalli [3],Activity level (growth inhibition rate) Galium spurium [4],Activity level (growth inhibition rate) Monochoria Vaginalis [5]
CC(Oc1nc(F)c(Cl)c(N)c1Cl)C(=O)SCc1ccco1 (stereo not shown) [Compound 139],5 (Level 5: the growth inhibition rate is greater than 85%),5 (Level 5: the growth inhibition rate is greater than 85%),5 (Level 5: the growth inhibition rate is greater than 85%),5 (Level 5: the growth inhibition rate is greater than 85%),5 (Level 5: the growth inhibition rate is greater than 85%)
CC(Oc1nc(F)c(Cl)c(NCc2ccccc2)c1Cl)C(=O)OCc1ccccc1 (stereo not shown) [Compound 195],5 (Level 5: the growth inhibition rate is greater than 85%),5 (Level 5: the growth inhibition rate is greater than 85%),5 (Level 5: the growth inhibition rate is greater than 85%),5 (Level 5: the growth inhibition rate is greater than 85%),5 (Level 5: the growth inhibition rate is greater than 85%)
CC(Oc1nc(F)c(Cl)c(N)c1Cl)C(=O)SCc1cccc(C(F)(F)F)c1 (stereo not shown) [Compound 233],5 (Level 5: the growth inhibition rate is greater than 85%),5 (Level 5: the growth inhibition rate is greater than 85%),5 (Level 5: the growth inhibition rate is greater than 85%),5 (Level 5: the growth inhibition rate is greater than 85%),5 (Level 5: the growth inhibition rate is greater than 85%)
CC(Oc1nc(F)c(Cl)c(N)c1Cl)C(=O)SCc1nncn1C (stereo not shown) [Compound 134],5 (Level 5: the growth inhibition rate is greater than 85%),5 (Level 5: the growth inhibition rate is greater than 85%),5 (Level 5: the growth inhibition rate is greater than 85%),5 (Level 5: the growth inhibition rate is greater than 85%),5 (Level 5: the growth inhibition rate is greater than 85%)
CC(Oc1nc(F)c(Cl)c(N)c1Cl)C(=O)OCc1cnco1 (stereo not shown) [Compound 141],5 (Level 5: the growth inhibition rate is greater than 85%),5 (Level 5: the growth inhibition rate is greater than 85%),5 (Level 5: the growth inhibition rate is greater than 85%),5 (Level 5: the growth inhibition rate is greater than 85%),5 (Level 5: the growth inhibition rate is greater than 85%)
CC(Oc1nc(F)c(Cl)c(N)c1Cl)C(=O)SCn1ccnn1 (stereo not shown) [Compound 137],5 (Level 5: the growth inhibition rate is greater than 85%),5 (Level 5: the growth inhibition rate is greater than 85%),5 (Level 5: the growth inhibition rate is greater than 85%),5 (Level 5: the growth inhibition rate is greater than 85%),5 (Level 5: the growth inhibition rate is greater than 85%)
CCNc1c(Cl)c(F)nc(OC(C)C(=O)SCc2ccccc2)c1Cl (stereo not shown) [Compound 191],5 (Level 5: the growth inhibition rate is greater than 85%),5 (Level 5: the growth inhibition rate is greater than 85%),5 (Level 5: the growth inhibition rate is greater than 85%),5 (Level 5: the growth inhibition rate is greater than 85%),5 (Level 5: the growth inhibition rate is greater than 85%)
CCn1cnc2ccc(COC(=O)C(C)Oc3nc(F)c(Cl)c(N)c3Cl)cc21 (stereo not shown) [Compound 172],5 (Level 5: the growth inhibition rate is greater than 85%),5 (Level 5: the growth inhibition rate is greater than 85%),5 (Level 5: the growth inhibition rate is greater than 85%),5 (Level 5: the growth inhibition rate is greater than 85%),5 (Level 5: the growth inhibition rate is greater than 85%)
CC(Oc1nc(F)c(Cl)c(N)c1Cl)C(=O)OCc1ccc(S(C)(=O)=O)cc1 (stereo not shown) [Compound 105],5 (Level 5: the growth inhibition rate is greater than 85%),5 (Level 5: the growth inhibition rate is greater than 85%),5 (Level 5: the growth inhibition rate is greater than 85%),5 (Level 5: the growth inhibition rate is greater than 85%),5 (Level 5: the growth inhibition rate is greater than 85%)
CC(Oc1nc(F)c(Cl)c(N)c1Cl)C(=O)SCc1cc(F)cc(Cl)c1 (stereo not shown) [Compound 81],5 (Level 5: the growth inhibition rate is greater than 85%),5 (Level 5: the growth inhibition rate is greater than 85%),5 (Level 5: the growth inhibition rate is greater than 85%),5 (Level 5: the growth inhibition rate is greater than 85%),5 (Level 5: the growth inhibition rate is greater than 85%)
CC(Oc1nc(F)c(Cl)c(N)c1Cl)C(=O)OCc1cscn1 (stereo not shown) [Compound 158],5 (Level 5: the growth inhibition rate is greater than 85%),5 (Level 5: the growth inhibition rate is greater than 85%),5 (Level 5: the growth inhibition rate is greater than 85%),5 (Level 5: the growth inhibition rate is greater than 85%),5 (Level 5: the growth inhibition rate is greater than 85%)
